Measured values reported in ChEMBL document CHEMBL3739315, “Design, synthesis and biological evaluation of thiourea and nicotinamide-containing sorafenib analogs as antitumor agents” (Medchemcomm, 2015).
The source made the active and inactive calls. The rule behind the calls is not given here.

Tests used:
MDA-MB-231 = assay: Antiproliferative activity against human MDA-MB-231 cells by MTT assay; assay type: functional, cell-based
[1] = Antiproliferative activity against human HCT116 cells by MTT assay; assay type: functional, cell-based; details: HCT-116
HepG2 = assay: Antiproliferative activity against human HepG2 cells by MTT assay; assay type: functional, cell-based
[2] = Antiproliferative activity against human PC3 cells by MTT assay; assay type: functional, cell-based; details: PC-3
HUVEC [3] = assay: Anti-angiogenic activity in human HUVEC assessed as inhibition of tube formation at 0.05 uM by matrigel assay; assay type: functional, cell-based
Thoracic aorta = assay: Ex-vivo anti-angiogenic activity in Sprague-Dawley rat thoracic aorta ring assessed as sprouting at 0.05 to 0.1 uM after 6 days; assay type: functional, tissue-based
HUVEC [4] = assay: Anti-angiogenic activity in human HUVEC assessed as inhibition of tube formation at 0.1 uM by matrigel assay; assay type: functional, cell-based

| Compound | IC50 (MDA-MB-231) [µM] | IC50 (HepG2) [µM] | IC50 [1] [µM] | IC50 [2] [µM] | inhibition (HUVEC [3]) | inhibition (Thoracic aorta) | inhibition (HUVEC [4]) |
| --- | --- | --- | --- | --- | --- | --- | --- |
| CNC(=O)c1cc(Oc2ccc(NC(=O)Nc3ccc(Cl)c(C(F)(F)F)c3)cc2)ccn1 [SORAFENIB] | 17.8 | 10.5 | 8.41 | 11 | Active | – | Active |
| CNC(=O)c1ccc(Oc2cccc(NC(=S)Nc3ccc(C)cc3)c2)nc1 | 29.5 | 65.4 | 53.7 | > 100 | – | – | – |
| CNC(=O)c1ccc(Oc2cccc(NC(=S)Nc3ccc(Cl)cc3)c2)nc1 | 66.5 | 29.4 | 42.5 | 28.4 | – | – | – |
| CNC(=O)c1ccc(Oc2cccc(NC(=S)Nc3ccc(Cl)cc3Cl)c2)nc1 | 20.7 | 21.6 | 20.9 | 19.3 | – | – | – |
| CNC(=O)c1ccc(Oc2cccc(NC(=S)Nc3cc(C(F)(F)F)cc(C(F)(F)F)c3)c2)nc1 | 2.67 | 4.55 | 2.5 | 5.86 | Active | Active | – |
| CNC(=O)c1ccc(Oc2cccc(NC(=S)Nc3ccc(OC)cc3)c2)nc1 | 31.5 | 85.3 | 49.8 | > 100 | – | – | – |
| CNC(=O)c1ccc(Oc2cccc(NC(=S)Nc3ccc(F)cc3)c2)nc1 | 21.7 | 42.5 | 39.4 | 32.7 | – | – | – |
| CNC(=O)c1cc(Oc2cccc(NC(=S)Nc3ccc(Cl)c(C(F)(F)F)c3)c2)ccn1 | 42.4 | 24.9 | 14.6 | 16.4 | – | – | – |

More lines, main results first:

| IC50 (MDA-MB-231) [µM] | IC50 (HepG2) [µM] | Compound | IC50 [1] [µM] | IC50 [2] [µM] | inhibition (HUVEC [3]) | inhibition (Thoracic aorta) | inhibition (HUVEC [4]) |
| --- | --- | --- | --- | --- | --- | --- | --- |
| 38.1 | 23.3 | CNC(=O)c1ccc(Oc2cccc(NC(=S)Nc3cccc(C(F)(F)F)c3)c2)nc1 | 36.6 | 15.4 | – | – | – |
| 2.33 | 5.35 | CNC(=O)c1ccc(Oc2cccc(NC(=S)Nc3ccc(Cl)c(C(F)(F)F)c3)c2)nc1 | 2.21 | 1.98 | Active | Active | – |
| 3.02 | 8.53 | CNC(=O)c1ccc(Oc2cccc(NC(=S)Nc3ccc(Br)c(C(F)(F)F)c3)c2)nc1 | 3.12 | 2.67 | – | – | – |
| 38.6 | > 100 | CNC(=O)c1ccc(Oc2cccc(NC(=S)Nc3ccc(C)c(C)c3)c2)nc1 | 48.2 | 67.4 | – | – | – |
| 13.3 | 20.2 | CNC(=O)c1ccc(Oc2cccc(NC(=S)Nc3ccc(F)c(C(F)(F)F)c3)c2)nc1 | 19 | 7.95 | – | – | – |
| 28.6 | > 100 | CNC(=O)c1ccc(Oc2cccc(NC(=S)Nc3ccc(F)c(Cl)c3)c2)nc1 | 25.4 | 18.4 | – | – | – |
| 69.3 | 26.7 | CNC(=O)c1ccc(Oc2cccc(NC(=S)Nc3ccc(F)c(F)c3)c2)nc1 | 38.2 | 23.1 | – | – | – |
| 56 | > 100 | CNC(=O)c1ccc(Oc2cccc(NC(=S)Nc3ccc(OC(F)(F)F)cc3)c2)nc1 | 54.7 | > 100 | – | – | – |
